In ChEMBL document CHEMBL1158802, “Bioactive constituents of the leaves of Phyllanthus polyphyllus var. siamensis” (J Nat Prod, 2005):
In brackets after ≈: the same amount, converted by molar mass. Activity calls are given as the source filed them. No cut-off for these calls is given here.

Experiments:
[1] = tested on: NCI-H187; assay: Cytotoxicity against human NCI-H187 cells by colorimetric method; format: functional, cell-based
[2] = tested on: KB; assay: Cytotoxicity against human KB cells by colorimetric method; format: functional, cell-based
[3] = Cytotoxicity against human BC cells by colorimetric method; format: functional, cell-based
[4] = tested on: Vero; assay: Cytotoxicity against african green monkey Vero cells by colorimetric method; format: cell-based; conditions: Chlorocebus sabaeus

Structure (SMILES) | IC50 [1] [µg/mL] | IC50 [2] [µg/mL] | IC50 [3] [µg/mL] | Activity [1] | Activity [2] | IC50 [4] [µg/mL]
O=C1C=C2C=C[C@@H](O)C[C@H]2O1 [MENISDAURILIDE] | > 5 | > 5 | > 5 | – | – | –
CC(=O)O[C@H]1[C@H](O[C@H]2CC[C@@]3(C)[C@@H](CC[C@]4(C)[C@@H]3CC=C3[C@@H]5CC(C)(C)CC[C@]5(C(=O)O)CC[C@]34C)[C@]2(C)CO)OC[C@H](O)[C@@H]1O | – | – | – | inactive | – | –
CC(=O)OC[C@@]1(C)[C@@H]2CC[C@]3(C)[C@H](CC=C4[C@@H]5CC(C)(C)CC[C@]5(C(=O)O)CC[C@]43C)[C@@]2(C)CC[C@@H]1O[C@@H]1OC[C@H](OC(C)=O)[C@H](OC(C)=O)[C@H]1OC(C)=O | 2.2 (≈ 2.85 µM) | 3.7 (≈ 4.79 µM) | 3.6 (≈ 4.66 µM) | – | – | –
Cc1c2ccncc2c(C)c2c1[nH]c1ccccc12 [ELLIPTECINE] | 0.32 (≈ 1.3 µM) | 0.26 (≈ 1.06 µM) | 0.36 (≈ 1.46 µM) | – | – | –
OC[C@H](Cc1ccc2c(c1)OCO2)[C@H](CO)Cc1ccc2c(c1)OCO2 [DIHYDROCUBEBIN] | > 5 | > 5 | > 5 | – | – | –
CC1(C)CC[C@]2(C(=O)O)CC[C@]3(C)C(=CC[C@@H]4[C@@]5(C)CC[C@H](O[C@@H]6OC[C@H](O)[C@H](O)[C@H]6O)[C@@](C)(CO)[C@@H]5CC[C@]43C)[C@@H]2C1 | – | – | – | inactive | inactive | –
COc1cc(C[C@@H](CO)[C@H](CO)Cc2ccc(O)c(OC)c2)ccc1O [(+)-SECOISOLARICIRESINOL] | > 5 | > 5 | > 5 | – | – | –
CC1(C)CC[C@]2(C(=O)O)CC[C@]3(C)C(=CC[C@@H]4[C@@]5(C)CC[C@H](O[C@@H]6OC[C@H](O)[C@H](O)[C@H]6O)C(C)(C)[C@@H]5CC[C@]43C)[C@@H]2C1 | 3.2 (≈ 5.43 µM) | – | 1.7 (≈ 2.89 µM) | – | inactive | 2.8 (≈ 4.76 µM)
CC(=O)O[C@@H]1[C@@H](OC(C)=O)[C@H](O[C@H]2CC[C@]3(C)[C@H]4CC=C5[C@@H]6CC(C)(C)CC[C@]6(C(=O)O)CC[C@@]5(C)[C@]4(C)CC[C@H]3C2(C)C)OC[C@@H]1OC(C)=O | – | – | 3.3 (≈ 4.62 µM) | inactive | inactive | 3.2 (≈ 4.48 µM)
CC1(C)CC[C@]2(C(=O)O)CC[C@]3(C)C(=CC[C@@H]4[C@@]5(C)CC[C@H](O)[C@@](C)(CO)[C@@H]5CC[C@]43C)[C@@H]2C1 [HEDERAGENIN] | > 5 | > 5 | > 5 | – | – | –
CC(=O)O[C@H]1CO[C@@H](O[C@H]2CC[C@@]3(C)[C@@H](CC[C@]4(C)[C@@H]3CC=C3[C@@H]5CC(C)(C)CC[C@]5(C(=O)O)CC[C@]34C)[C@]2(C)CO)[C@H](O)[C@H]1O | – | – | 3.6 (≈ 5.57 µM) | inactive | inactive | 10.7 (≈ 16.5 µM)
CC(=O)O[C@@H]1[C@@H](O)[C@H](O[C@H]2CC[C@@]3(C)[C@@H](CC[C@]4(C)[C@@H]3CC=C3[C@@H]5CC(C)(C)CC[C@]5(C(=O)O)CC[C@]34C)[C@]2(C)CO)OC[C@@H]1O | – | – | – | inactive | inactive | –
